Results published in patent US20160046618A1, “Cyclopropyl Fused Thiazin-2-Amine Compounds as Beta-Secretase Inhibitors and Methods of Use” (AMGEN INC., priority 2014, published 2016).

Assays:
human recombinant BACE1 = human recombinant BACE1 (Homo sapiens (Human), UniProt P56817); test: In vitro enzymatic BACE1 FRET assay; format: biochemical; details: read-out: IC50 IP (μM) BACE1 enzyme
Procedure, shortened: (§1)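 Fluorescence from cleavage of a quenched peptide spanning the BACE site (50 nM) was read at 488 nm excitation, 590 nm emission. Purified enzyme (Ni-NTA) and compound reacted for one hour before a Tris stop shifted pH to neutral.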

human recombinant BACE2 = human recombinant BACE2 (Homo sapiens (Human), UniProt Q9Y5Z0); test: In vitro enzymatic BACE2 FRET assay; format: biochemical; details: read-out: IC50 IP (μM) BACE2 enzyme
human recombinant BACE2, sequence (Q9Y5Z0 63-518): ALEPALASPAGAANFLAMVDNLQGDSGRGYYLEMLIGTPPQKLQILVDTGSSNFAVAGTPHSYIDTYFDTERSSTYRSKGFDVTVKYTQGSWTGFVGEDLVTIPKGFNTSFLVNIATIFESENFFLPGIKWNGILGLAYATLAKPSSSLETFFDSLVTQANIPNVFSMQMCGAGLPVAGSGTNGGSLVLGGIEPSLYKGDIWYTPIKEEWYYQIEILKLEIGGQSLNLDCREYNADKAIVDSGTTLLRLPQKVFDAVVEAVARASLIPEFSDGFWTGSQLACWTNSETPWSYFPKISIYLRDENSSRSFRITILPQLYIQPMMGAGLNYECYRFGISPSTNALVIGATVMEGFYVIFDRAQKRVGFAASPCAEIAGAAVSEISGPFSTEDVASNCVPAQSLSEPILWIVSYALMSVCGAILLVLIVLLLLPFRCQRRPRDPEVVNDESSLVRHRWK
Procedure, shortened: as §1

[1] = test system: Aβ40 in conditioned medium of cells stably expressing Amyloid Precursor Protein (APP); test: In vitro BACE-1 cell-based assay (Aβ40 sandwich ELISA); details: read-out: IC50 IP (μM) BACE1 cell
Procedure, shortened: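 Aβ40 in supernatants measured by time-resolved fluorescence sandwich ELISA, with pAb40 as capture and biotin-6E10 as detector antibody, each incubated at 4 °C.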

Recombinant Cat D = Recombinant Cat D (Homo sapiens (Human), UniProt P07339); test: In vitro enzymatic Cathepsin D (Cat D) FRET assay; format: biochemical; details: read-out: IC50 IP (μM) CatD
Recombinant Cat D, sequence (P07339 65-412): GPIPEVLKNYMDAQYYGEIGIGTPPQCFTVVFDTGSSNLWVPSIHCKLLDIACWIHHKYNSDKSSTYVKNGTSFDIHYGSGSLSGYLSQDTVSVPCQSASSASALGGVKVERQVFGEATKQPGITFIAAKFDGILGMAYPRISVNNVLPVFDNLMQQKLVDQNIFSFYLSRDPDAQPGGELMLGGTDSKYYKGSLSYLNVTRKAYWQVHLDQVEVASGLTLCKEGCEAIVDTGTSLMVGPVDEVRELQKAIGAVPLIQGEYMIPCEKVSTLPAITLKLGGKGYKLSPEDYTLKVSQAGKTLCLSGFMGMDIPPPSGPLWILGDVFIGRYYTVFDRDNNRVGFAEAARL
Procedure, shortened: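 Human Cat D expressed in CHO cells was incubated for one hour in 0.05 M citrate pH 3.5, 5 mM CHAPS, 10% DMSO final, with 20 nM quenched FRET peptide substrate. Reactions were stopped with Tris buffer raising pH to neutrality. Cleavage was read as fluorescence at excitation 500 nm, emission 580 nm.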

human recombinant BACE1, sequence (P56817 46-501): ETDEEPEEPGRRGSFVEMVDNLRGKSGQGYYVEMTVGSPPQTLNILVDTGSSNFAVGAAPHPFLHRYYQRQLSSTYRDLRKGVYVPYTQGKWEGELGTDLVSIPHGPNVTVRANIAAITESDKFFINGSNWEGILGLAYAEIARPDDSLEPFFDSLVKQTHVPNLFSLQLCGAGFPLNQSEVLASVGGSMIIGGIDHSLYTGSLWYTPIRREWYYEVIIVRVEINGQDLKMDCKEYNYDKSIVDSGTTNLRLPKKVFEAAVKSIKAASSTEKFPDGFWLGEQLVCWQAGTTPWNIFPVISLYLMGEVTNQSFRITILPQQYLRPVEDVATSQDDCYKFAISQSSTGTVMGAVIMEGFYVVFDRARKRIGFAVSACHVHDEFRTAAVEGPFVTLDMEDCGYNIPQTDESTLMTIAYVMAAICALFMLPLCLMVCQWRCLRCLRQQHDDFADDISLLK

Structure (SMILES)	IC50 (human recombinant BACE1) [µM]	IC50 (human recombinant BACE2) [µM]	IC50 [1] [µM]	IC50 (Recombinant Cat D) [µM]
C#CCOc1cnc(C(=O)Nc2ccc(F)c([C@@]3(CF)N=C(N)S[C@@]4(/C=C/C(=O)N(C)C)C[C@H]43)c2)cn1 [Example 774, N-(3-((1R,5S,6S)-3-amino-1-((1E)-3-(dimethylamino)-3-oxo-1-propen-1-yl)-5-(fluoromethyl)-2-thia-4-azabicyclo[4.1.0]hept-3-en-5-yl)-4-fluorophenyl)-5-(2-propyn-1-yloxy)-2-pyrazinecarboxamide]	0.000313	0.00575	0.000583	7.95
CN(C)C(=O)/C=C/[C@]12C[C@H]1[C@@](CF)(c1cc(Nc3ncnc4cc(OCc5ncco5)cnc34)ccc1F)N=C(N)S2 [Example 775, (2E)-3-((1R,5S,6S)-3-amino-5-(fluoromethyl)-5-(2-fluoro-5-((7-(1,3-oxazol-2-ylmethoxy)pyrido[3,2-d]pyrimidin-4-yl)amino)phenyl)-2-thia-4-azabicyclo[4.1.0]hept-3-en-1-yl)-N,N-dimethyl-2-propenamide]	0.00112	0.0602	0.00323	22.8
C#CCOc1cnc2c(Nc3ccc(F)c([C@@]4(CF)N=C(N)S[C@@]5(/C=C/C(=O)N(C)C)C[C@H]54)c3)ncnc2c1 [Example 776, (2E)-3-((1R,5S,6S)-3-amino-5-(fluoromethyl)-5-(2-fluoro-5-((7-(2-propyn-1-yloxy)pyrido[3,2-d]pyrimidin-4-yl)amino)phenyl)-2-thia-4-azabicyclo[4.1.0]hept-3-en-1-yl)-N,N-dimethyl-2-propenamide]	0.0012	0.0264	0.00305	293
C/C(=C/[C@]12C[C@H]1[C@@](CF)(c1cc(NC(=O)c3ccc(Cl)cn3)ccc1F)N=C(N)S2)C(=O)N1CCOCC1 [Example 777, N-(3-((1R,5S,6S)-3-amino-5-(fluoromethyl)-1-((Z)-2-methyl-3-morpholino-3-oxoprop-1-en-1-yl)-2-thia-4-azabicyclo[4.1.0]hept-3-en-5-yl)-4-fluorophenyl)-5-chloropicolinamide]	0.000274	< 0.00203	0.000416	834
C/C(=C\[C@]12C[C@H]1[C@@](CF)(c1cc(NC(=O)c3ccc(Cl)cn3)ccc1F)N=C(N)S2)C(=O)N1CCOCC1 [Example 778, N-(3-((1R,5S,6S)-3-amino-5-(fluoromethyl)-1-((E)-2-methyl-3-morpholino-3-oxoprop-1-en-1-yl)-2-thia-4-azabicyclo[4.1.0]hept-3-en-5-yl)-4-fluorophenyl)-5-chloropicolinamide]	0.00558	0.0026	0.0134	557
C#CCOc1cnc2c(Nc3ccc(F)c([C@@]4(CF)N=C(N)S[C@@]5(C(=O)N(C)C)C[C@H]54)c3)nccc2n1 [Example 779, (1S,5S,6S)-3-amino-5-(fluoromethyl)-5-(2-fluoro-5-((2-(2-propyn-1-yloxy)pyrido[3,4-b]pyrazin-5-yl)amino)phenyl)-N,N-dimethyl-2-thia-4-azabicyclo[4.1.0]hept-3-ene-1-carboxamide]	0.000728	< 0.00203	0.00082	> 400
C#CCOc1cnc(C(=O)Nc2ccc(F)c([C@@]3(CF)N=C(N)S[C@@]4(c5cnco5)C[C@@H]34)c2)cn1 [Example 780, N-(3-((1S,5S,6S)-3-amino-5-(fluoromethyl)-1-(1,3-oxazol-5-yl)-2-thia-4-azabicyclo[4.1.0]hept-3-en-5-yl)-4-fluorophenyl)-5-(2-propyn-1-yloxy)-2-pyrazinecarboxamide]	0.00022	< 0.0061	0.00126	116
C#CCOc1cnc2c(Nc3ccc(F)c([C@@]4(CF)N=C(N)S[C@@]5(c6cnco6)C[C@@H]45)c3)nccc2n1 [Example 781, N-(3-((1S,5S,6S)-3-amino-5-(fluoromethyl)-1-(1,3-oxazol-5-yl)-2-thia-4-azabicyclo[4.1.0]hept-3-en-5-yl)-4-fluorophenyl)-2-(2-propyn-1-yloxy)pyrido[3,4-b]pyrazin-5-amine]	0.000422	0.00329	0.00577	397
C#CCOc1cnc2c(Nc3ccc(F)c([C@@]4(CF)N=C(N)S[C@@]5(c6cnco6)C[C@@H]45)c3)ncnc2c1 [Example 782, N-(3-((1S,5S,6S)-3-amino-5-(fluoromethyl)-1-(1,3-oxazol-5-yl)-2-thia-4-azabicyclo[4.1.0]hept-3-en-5-yl)-4-fluorophenyl)-7-(2-propyn-1-yloxy)pyrido[3,2-d]pyrimidin-4-amine]	0.000577	0.0245	0.0197	792
NC1=N[C@](CF)(c2cc(NC(=O)c3cnc(OCc4ncco4)cn3)ccc2F)[C@@H]2C[C@]2(c2cnco2)S1 [Example 783, N-(3-((1S,5S,6S)-3-amino-5-(fluoromethyl)-1-(1,3-oxazol-5-yl)-2-thia-4-azabicyclo[4.1.0]hept-3-en-5-yl)-4-fluorophenyl)-5-(1,3-oxazol-2-ylmethoxy)-2-pyrazinecarboxamide]	0.000501	0.00245	0.00485	> 400
C#CCOc1cnc(C(=O)Nc2ccc(F)c([C@@]3(CF)N=C(N)S[C@@]4(c5ocnc5C)C[C@@H]34)c2)cn1 [Example 784, N-(3-((1S,5S,6S)-3-amino-5-(fluoromethyl)-1-(4-methyloxazol-5-yl)-2-thia-4-azabicyclo[4.1.0]hept-3-en-5-yl)-4-fluorophenyl)-5-(prop-2-yn-1-yloxy)pyrazine-2-carboxamide]	0.000318	< 0.00203	0.00152	166
NC1=N[C@](CF)(c2cc(NC(=O)c3ccc(Cl)cn3)ccc2F)[C@@H]2C[C@]2(c2cnco2)S1 [Example 785, N-(3-((1S,5S,6S)-3-amino-5-(fluoromethyl)-1-(1,3-oxazol-5-yl)-2-thia-4-azabicyclo[4.1.0]hept-3-en-5-yl)-4-fluorophenyl)-5-chloro-2-pyridinecarboxamide]	0.00112	< 0.00203	0.0102	621
NC1=N[C@](CF)(c2cc(NC(=O)c3ccc(Cl)cn3)ccc2F)[C@@H]2C[C@]2(c2ccon2)S1 [Example 786, N-(3-((1S,5S,6S)-3-amino-5-(fluoromethyl)-1-(isoxazol-3-yl)-2-thia-4-azabicyclo[4.1.0]hept-3-en-5-yl)-4-fluorophenyl)-5-chloropicolinamide]	0.000976	< 0.00203	0.0464	584
Cc1ncoc1[C@]12C[C@H]1[C@@](CF)(c1cc(NC(=O)c3ccc(Cl)cn3)ccc1F)N=C(N)S2 [Example 787, N-(3-((1S,5S,6S)-3-amino-5-(fluoromethyl)-1-(4-methyl-1,3-oxazol-5-yl)-2-thia-4-azabicyclo[4.1.0]hept-3-en-5-yl)-4-fluorophenyl)-5-chloro-2-pyridinecarboxamide]	0.000847	< 0.00203	0.0139	1230
C#CCOc1cnc2c(Nc3ccc(F)c([C@@]4(CF)N=C(N)S[C@@]5(c6ocnc6C)C[C@@H]45)c3)ncnc2c1 [Example 788, N-(3-((1S,5S,6S)-3-amino-5-(fluoromethyl)-1-(4-methyl-1,3-oxazol-5-yl)-2-thia-4-azabicyclo[4.1.0]hept-3-en-5-yl)-4-fluorophenyl)-7-(2-propyn-1-yloxy)pyrido[3,2-d]pyrimidin-4-amine]	0.00127	0.0122	0.0161	485
